Measurements taken from patent publication USRE47689E1, “Compounds for treating spinal muscular atrophy” (PTC Therapeutics, Inc., priority 2011, dated 2019).
Structures can show the parent of a compound that is named as a salt. Where two headings read alike, the source gives them in different places.

Tests used:
[1] = test system: SMN2 minigene (full length SMN2 minigene mRNA containing SMN2 exon 7); assay: SMN2 minigene mRNA splicing RT-qPCR assay in cultured cells; type: cell-based, human; settings: Homo sapiens, HEK293-H, read-out: EC1.5x for production of full length SMN2 mRNA
How it was run: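 Read-out: full-length (exon 7-included) SMN2 minigene mRNA by multiplex RT-qPCR with GAPDH, efficiency-corrected (1+E)^−Ct, GAPDH-normalized and divided by vehicle. Stably transfected HEK293H cells, 24 h compound exposure, duplicates per concentration. Value is EC1.5x, reported as star ranges.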

[2] = test system: Smn protein; assay: Smn protein assay in cultured cells (SMN HTRF); type: cell-based, human; settings: 48 hours; for EC1.5x (concentration giving 1.5-fold Smn protein increase): SMA Type 1 patient fibroblast cells (GM03813), 7-point concentration curve, SMN HTRF, concentration producing 1.5 times Smn protein vs DMSO vehicle control, read-out: EC1.5x for Smn protein expression; for maximum fold (Fold) increase of Smn protein: SMA patient fibroblast cells, 7-point concentration data, fold increase relative to vehicle control (SMN HTRF)
How it was run: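 Lysates in RIPA with protease inhibitors are incubated overnight at room temperature with HTRF anti-SMN antibodies. EC1.5x is derived from fold increase in ΔF over vehicle.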

[3] = HEK293H cells stably transfected with SMN2-A minigene, 24 hours, 7-point concentration curve, 1.5-fold relative to vehicle-treated cells

Structure (SMILES) | melting point | EC (1.5-fold) ([1]; 24 h) | EC (1.5-fold) [1, 3] | EC1.5x (concentration giving 1.5-fold Smn protein increase) [2] | maximum fold (Fold) increase of Smn protein [2]
O=c1oc2cc(N3CCNCC3)ccc2cc1Nc1cccnc1 [Compound 66, 7-(piperazin-1-yl)-3-(pyridin-3-ylamino)-2H-chromen-2-one] | 172 to 175 °C | 3 to 30 µM | – | – | –
O=c1oc2cc(N3CCNCC3)ccc2cc1Nc1ncccn1 [Compound 33, 7-(piperazin-1-yl)-3-(pyrimidin-2-ylamino)-2H-chromen-2-one] | 193 to 195 °C | 3 to 30 µM | – | – | –
O=c1oc2cc(N3CCNCC3)ccc2cc1Nc1ccccn1 [Cpd 32, 7-(piperazin-1-yl)-3-(pyridin-2-ylamino)-2H-chromen-2-one] | 191 to 194 °C | 3 to 30 µM | – | – | –
O=c1oc2cc(OC3CCNC3)ccc2cc1-c1cn2cccnc2n1 (stereo in doubt) (as salt: hydrochloride) [Cpd 321, 3-(imidazo[1,2-a]pyrimidin-2-yl)-7-[(3R)-pyrrolidin-3-yloxy]-2H-chromen-2-one hydrochloride (1:2)] | 240 to 250 °C | – | – | – | –
Cc1nc(Cl)cn2cc(-c3cc4ccc(N5C[C@@H]6C[C@H]5CN6)cc4oc3=O)nc12 [Compound 780, 3-(6-chloro-8-methylimidazo[1,2-a]pyrazin-2-yl)-7-[(1S,4S)-2,5-diazabicyclo[2.2.1]hept-2-yl]-2H-chromen-2-one] | – | – | < 0.1 µM | < 300 nM | **** (fold increase between >1.5 and ≤1.65)
Cc1cn2cc(-c3cc4ccc(OCCN5CC[C@H](O)C5)cc4oc3=O)nc2c(C)n1 [Compound 954, 3-(6,8-dimethylimidazo[1,2-a]pyrazin-2-yl)-7-{2-[(3S)-3-hydroxypyrrolidin-1-yl]ethoxy}-2H-chromen-2-one] | – | – | < 0.1 µM | < 300 nM | ***** (fold increase >1.65)
CN1CCCN(c2ccc3cc(-c4cn5ccncc5n4)c(=O)oc3c2)CC1 [Compound 455, 3-(imidazo[1,2-a]pyrazin-2-yl)-7-(4-methyl-1,4-diazepan-1-yl)-2H-chromen-2-one] | – | – | < 0.1 µM | 300 to 1000 nM | **** (fold increase between >1.5 and ≤1.65)
Cc1nc2ccc(-c3cc4ccc(N5CCN(C)[C@@H](C)C5)cc4oc3=O)cc2s1 [Compound 776, 7-[(3S)-3,4-dimethylpiperazin-1-yl]-3-(2-methyl-1,3-benzothiazol-6-yl)-2H-chromen-2-one acetate (2:1)] | – | – | 1 to 3 µM | – | ** (fold increase between >1.2 and ≤1.35)
Cc1cn2cc(-c3cc4ccc(O[C@@H]5CCNC5)cc4oc3=O)nc2c(C)n1 [Compound 601, 3-(6,8-dimethylimidazo[1,2-a]pyrazin-2-yl)-7-[(3R)-pyrrolidin-3-yloxy]-2H-chromen-2-one] | – | – | < 0.1 µM | < 300 nM | ***** (fold increase >1.65)
Cc1cn2cc(-c3cc4ccc(N5CCN[C@@H](C(C)C)C5)cc4oc3=O)nc2c(C)n1 [Compound 808, 3-(6,8-dimethylimidazo[1,2-a]pyrazin-2-yl)-7-[(3S)-3-(propan-2-yl)piperazin-1-yl]-2H-chromen-2-one] | – | – | < 0.1 µM | < 300 nM | **** (fold increase between >1.5 and ≤1.65)
Cc1cccc2oc(-c3cc4ccc(N5CCNCC5)cc4oc3=O)nc12.Cl [Compound 22, 3-(4-methyl-1,3-benzoxazol-2-yl)-7-(piperazin-1-yl)-2H-chromen-2-one hydrochloride] | – | – | 3 to 30 µM | – | * (maximum fold increase of ≤1.2)
Cc1cn2cc(-c3cc4ccc(N5CCN[C@H](C)C5)cc4oc3=O)nc2c(C)n1 [Cpd 536, 3-(6,8-dimethylimidazo[1,2-a]pyrazin-2-yl)-7-[(3R)-3-methylpiperazin-1-yl]-2H-chromen-2-one] | – | – | < 0.1 µM | < 300 nM | ***** (fold increase >1.65)

Further lines, with some results ahead:

melting point | Structure (SMILES) | EC (1.5-fold) ([1]; 24 h) | EC (1.5-fold) [1, 3] | EC1.5x (concentration giving 1.5-fold Smn protein increase) [2] | maximum fold (Fold) increase of Smn protein [2]
339 to 341 °C | Cl.O=c1oc2cc(N3CCNCC3)ccc2cc1-c1nc2c(C(F)(F)F)cccc2o1 | – | – | – | –
250 °C (dec.) | O=c1oc2cc(N3CCNCC3)ccc2cc1-c1nc2ccccc2s1 (as salt: hydrochloride) [Cpd 4, 3-(1,3-benzothiazol-2-yl)-7-(piperazin-1-yl)-2H-chromen-2-one hydrochloride] | – | – | – | –
238 to 248 °C | O=C(Nc1ccccc1)c1cc2ccc(N3CCNCC3)cc2oc1=O (as salt: trifluoroacetate) [Cpd 3, 2-oxo-N-phenyl-7-(piperazin-1-yl)-2H-chromene-3-carboxamide trifluoroacetate] | – | – | – | –
220 to 223 °C | Cc1cn2cc(-c3cc4ccc(N5CCN[C@H](C)C5)cc4oc3=O)cc2cn1 [Compound 637, 7-[(3R)-3-methylpiperazin-1-yl]-3-(3-methylpyrrolo[1,2-a]pyrazin-7-yl)-2H-chromen-2-one] | – | < 0.1 µM | – | –
> 300 °C | O=c1oc2cc(N3C[C@@H]4C[C@H]3CN4)ccc2cc1-c1cn2cccnc2n1 (as salt: hydrochloride) [Compound 129, 7-[(1S,4S)-2,5-diazabicyclo[2.2.1]hept-2-yl]-3-(imidazo[1,2a]pyrimidin-2-yl)-2H-chromen-2-one hydrochloride (1:3)] | – | – | – | –
190 to 193 °C | Cc1cccn2cc(-c3cc4ccc(N5CCNCC5)cc4oc3=O)nc12 [Compound 44, 3-(8-methylimidazo[1,2-a]pyridin-2-yl)-7-(piperazin-1-yl)-2H-chromen-2-one] | – | 0.3 to 1 µM | – | –
127 to 130 °C | COc1cccc(-c2cc3ccc(N4CCNCC4)cc3oc2=O)c1 [Compound 77, 3-(3-methoxyphenyl)-7-(piperazin-1-yl)-2H-chromen-2-one] | – | 3 to 30 µM | – | –
222 to 224 °C | CN(C)C1CCN(c2ccc3cc(-c4nc5ccccc5o4)c(=O)oc3c2)C1 (centres unmarked) [Compound 48, 3-(1,3-benzoxazol-2-yl)-7-[3-(dimethylamino)pyrrolidin-1-yl]-2H-chromen-2-one] | – | 1 to 3 µM | – | –
290 °C (dec.) | O=c1oc2cc(N3CCNCC3)ccc2cc1-c1nc2c(Cl)cccc2s1 (as salt: hydrochloride) [Cpd 5, 3-(4-chloro-1,3-benzothiazol-2-yl)-7-(piperazin-1-yl)-2H-chromen-2-one hydrochloride] | – | – | – | –
195 to 198 °C | CCN1CC[C@@H](Oc2ccc3cc(-c4nc5ccccc5s4)c(=O)oc3c2)C1 [Compound 127, 3-(1,3-benzothiazol-2-yl)-7-{[(3R)-1-ethylpyrrolidin-3-yl]oxy}-2H-chromen-2-one] | – | 1 to 3 µM | – | –
271 to 275 °C | Cc1ccn2cc(-c3cc4ccc(O[C@@H]5CCNC5)cc4oc3=O)nc2c1 (as salt: hydrochloride) [Compound 323, 3-(7-methylimidazo[1,2-a]pyridin-2-yl)-7-[(3R)-pyirolidin-3-yloxy]-2H-chromen-2-one hydrochloride (1:2)] | – | – | – | –
297 to 307 °C | Cl.O=c1oc2cc(N3CCNCC3)ccc2cc1-c1nc2cccc(C(F)(F)F)c2o1 | – | – | – | –
205 to 211 °C | Cc1cn2cc(-c3cc4ccc(C5=CCNCC5)cc4oc3=O)nc2c(C)n1 | – | – | – | –
